Measurements: ChEMBL document CHEMBL5380866, “Discovery of Selective P2Y6R Antagonists with High Affinity and In Vivo Efficacy for Inflammatory Disease Therapy” (J Med Chem, 2023)

Columns and labels:
[1] = molecular target: P2Y purinoceptor 6 (Homo sapiens, UniProt Q15077); assay: Antagonist activity at human P2Y6R expressed in HEK293 cells assessed as inhibition of UDP-induced IP3 production preincubated for 0.5 hrs followed by UDP stimulation and measured after 12 hrs by ELISA analysis; type: functional, cell-based
Chain of P2Y purinoceptor 6 (Q15077 whole entry): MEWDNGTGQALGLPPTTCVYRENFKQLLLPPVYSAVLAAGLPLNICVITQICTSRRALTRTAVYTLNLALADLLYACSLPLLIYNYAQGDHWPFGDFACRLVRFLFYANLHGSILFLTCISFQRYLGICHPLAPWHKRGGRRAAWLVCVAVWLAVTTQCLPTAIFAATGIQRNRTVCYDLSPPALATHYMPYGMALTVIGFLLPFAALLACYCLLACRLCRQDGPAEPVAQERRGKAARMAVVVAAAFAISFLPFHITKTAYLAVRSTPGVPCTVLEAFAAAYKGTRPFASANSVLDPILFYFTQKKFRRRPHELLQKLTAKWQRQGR

[2] = molecular target: P2Y purinoceptor 12 (Homo sapiens, UniProt Q9H244); assay: Antagonist activity at human P2Y12R expressed in HEK293 cells assessed as inhibition of MeSADP-induced cAMP production preincubated for 0.5 hrs followed by MeSADP stimulation by cAMP-glo analysis; type: functional, cell-based
Chain of P2Y purinoceptor 12 (Q9H244 whole entry): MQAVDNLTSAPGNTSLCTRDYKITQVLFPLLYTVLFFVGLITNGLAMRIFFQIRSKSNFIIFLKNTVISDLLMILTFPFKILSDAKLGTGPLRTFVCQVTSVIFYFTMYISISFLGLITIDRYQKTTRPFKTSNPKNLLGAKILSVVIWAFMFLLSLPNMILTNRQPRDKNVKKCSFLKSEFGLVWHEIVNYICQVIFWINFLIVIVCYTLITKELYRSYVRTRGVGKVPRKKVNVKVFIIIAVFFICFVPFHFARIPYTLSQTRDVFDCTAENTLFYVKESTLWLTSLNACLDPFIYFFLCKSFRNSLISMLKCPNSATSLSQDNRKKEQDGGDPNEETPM

| IC50 [1] | IC50 [2] | SMILES |
| --- | --- | --- |
| 49.2 nM |  | CC(C)(C)n1nc(-c2nc3ccccc3[nH]2)cc1-c1ccccc1 |
|  | 1400 nM | CCCSc1nc(N[C@@H]2C[C@H]2c2ccc(F)c(F)c2)c2nnn([C@@H]3C[C@H](OCCO)[C@@H](O)[C@H]3O)c2n1 [TICAGRELOR] |
| 93.5 nM |  | CC(C)(C)n1nc(-c2nc3c(Cl)cccc3[nH]2)cc1-c1ccco1 |
| 94.2 nM |  | Cc1cccc2oc(-c3cc(-c4ccco4)n(C(C)(C)C)n3)nc12 |
| 457 nM |  | O=C(O)CCC(=O)N1N=C(c2nc3cc(Cl)ccc3[nH]2)CC1c1ccco1 (centres undefined) |
| 30.8 nM |  | CC(C)(C)n1nc(-c2nc3ccccc3o2)cc1-c1ccco1 |
| 314 nM |  | CC(C)(C)n1nc(-c2nc3ccccc3s2)cc1-c1ccccc1 |
| 15.2 nM |  | CC(C)(C)n1nc(-c2nc3cc(C(F)(F)F)ccc3[nH]2)cc1-c1ccco1 |
| 173 nM |  | CC(C)(C)n1nc(-c2nc3ccccc3o2)cc1-c1ccccc1 |
| 159 nM |  | CC(C)(C)n1nc(-c2nc3ccccc3[nH]2)cc1-c1ccco1 |
| 202 nM |  | Cc1ccc2oc(-c3cc(-c4ccco4)n(C(C)(C)C)n3)nc2c1 |
| 42.5 nM |  | Cc1ccc2nc(-c3cc(-c4ccccc4)n(C(C)(C)C)n3)oc2c1 |
| 72.9 nM |  | Cc1ccc2nc(-c3cc(-c4ccco4)n(C(C)(C)C)n3)oc2c1 |
| 77.8 nM |  | Cc1ccc2[nH]c(-c3cc(-c4ccccc4)n(C(C)(C)C)n3)nc2c1 |
